Patent US8785457B2 (Cellzome Limited, priority 2009, dated 2014)

Columns and labels:
[1] = test system: Akt serine-473 phosphorylation; assay: In vitro Phospho-Akt cellular assay (pAkt S473) in HEK293T/17 cells; assay type: cell-based; settings: Homo sapiens, 2 hours
Excerpt: Activation of mTOR signaling results in phosphorylation of several downstream targets. In cells, mTOR exists in two different protein complexes. The mTOR Complex-1 (mTORC1) phosphorylates and activates S6 Kinase 1 (S6K1) and S6 Kinase 2 (S6K2) (also known as p70S6K) which then phosphorylate S6 Ribosomal Protein (S6RP) (also known as RPS6)3. S6RP is phosphorylated on serine 235, serine 236, serine 240 and serine 244 by both pS6K1 and pS6K2. The mTOR Complex-2 (mTORC2) phosphorylates AKT on serine 473 which activates the AKT signaling pathway.
The assay measures a test compound's inhibition of S6RP serine-240/244 phosphorylation and inhibition of Akt serine-473 phosphorylation in human embryonic kidney derived HEK293T/17 cells (ATCC CRL-11268).
The HEK293T/17 cell line is maintained in DMEM media (Invitrogen catalogue number 41965-039) supplemented with 10% FCS at 37° C. in a 5% CO2 humidified incubator.
Cells are seeded in 96-well plates at 40,000 cells/well (pS6RP S240/244 assay) or 80,000 cells/well (pAkt S473 assay) in 90 μl growth media (DMEM, 2% FCS). Plates are incubated for 1 hour in a humidified incubator to allow the cells to adhere. Cells are treated with 8 concentrations of test compounds or DMSO alone for controls (final DMSO concentration 0.1%) and incubated at 37° C. for 2 hours. Then 20 μl of 5× concentrated lysis buffer (750 mM NaCl, 100 mM Tris pH7.4, 5 mM ADTA, 5 mM EGTA, 5% Triton X-100) is added, plates are sealed and incubated for 15 minutes at 4° C. with gentle shaking. After cell lysis, 25 μl cell lysate is transferred to a MesoScale plate coated with an antibody to pS6RP Ser240/244 (MesoScale Discovery K150DGD-3) or an antibody to pAkt Ser 473 (MesoScale Discovery K151DGD-3). Plates have been blocked before by incubation with 150 μl MesoScale Discovery Blocking Solution-A for 1 hour at room temperature followed by washing with 150 μl 1× Tris wash buffer per well. After the transfer of the cell lysate to the MSD plate, the pS6RP (or pAkt) protein is captured on the coated antibody by incubation at room temperature for 1 hour with gentle shaking. After the capture step the plate is washed three times with 150 μl of 1× Tris wash buffer per well. Then 25 μl detection antibody conjugated with a Sulfo-Tag is added and incubated for 1 hour at room temperature with gentle shaking. Subsequently the antibody solution is removed and the plate is washed 3 times with 150 μl×Tris wash buffer per well and 150 μl Read buffer is added. The plates are analysed on a MSD 2400 Plate Reader (MesoScale Discovery). Data analysis is performed using nonlinear regression for a sigmoidal dose-response with a variable slope.

[2] = test system: cytokine levels (TNFα, IL-2, IFNγ and IL-4); assay: Anti-CD3 induced cytokine release in the mouse; assay type: in vivo; settings: 100 mg/kg p.o. 30 minutes before anti-CD3, blood 90 minutes after anti-CD3, compared to control group 2
Method: In this mouse model, T cells and NK cells were activated in situ by the intraperitoneal (i.p.) injection of an anti-CD3 antibody into mice that had been pre-treated for 30 minutes with certain compounds of the invention (100 mg/kg po administration). Blood samples were collected 90 minutes after anti-CD3 injection. Plasma samples were prepared and the cytokine levels (Tumor Necrosis factor alpha (TNFα), Interleukin-2 (IL-2), Interferon-gamma (IFNγ) and Interleukin-4 (IL-4)) were measured using a Cytometric Bead Array method.
A single dose of test compound was administered p.o. 30 minutes before anti-CD3 injection. 90 minutes after anti-CD3 injection blood samples were collected for cytokine analysis (approximately 400 μl whole blood anti-coagulated with Na-heparin) and stored frozen until use.
The cytokine measurement was done using the mouse Cytometric Bead Array (CBA) Th1/Th2 kit (BD Biosciences, San Diego, Calif., USA; catalogue number 551287) according to the manufacturer's instruction with the following modifications: all reagents were downscaled by a factor of 2 and the mixture of plasma, beads and detection reagents was done in 96-U-bottom plates. Standards and samples were acquired on a FACSCalibur® instrument (Becton Dickinson) using an HTS plate loader. Data were analysed with the CBA Software provided by Becton Dickinson which draws standard curves and converts mean fluorescence values into concentration values (pg/ml).
Animals: male C57BL/6J mice, 9 weeks old (Janvier, Le Genest St Isle, France).
Test compounds were dosed orally (p.o.) at 100 mg/kg (vehicle: 0.5% CMC, application volume 10 ml/kg).
Anti-CD3 antibody (BD Bioscience, catalogue number 553057): 200 μl of a 10 μg/ml solution in PBS were applied i.p. (2 μg per mouse).

IC50 [1] [µM] | SMILES | other results
0.017 | CCNC(=O)Nc1ccc(-c2nc3c(c(N4CCOC[C@@H]4C)n2)CCN(C(=O)C(C)(C)C)C3)cc1 [Example 58, (S)-1-ethyl-3-(4-(4-(3-methylmorpholino)-7-pivaloyl-5,6,7,8-tetrahydropyrido[3,4-d]pyrimidin-2-yl)phenyl)urea] | –
0.021 | C[C@H]1COCCN1c1nc(-c2ccc(NC(=O)NC3CC3)cc2)nc2c1CCN(C(=O)C1CC1)C2 [Example 60, (S)-1-(4-(7-(cyclopropanecarbonyl)-4-(3-methylmorpholino)-5,6,7,8-tetrahydropyrido[3,4-d]pyrimidin-2-yl)phenyl)-3-cyclopropylurea] | –
0.02 | CC(C)C(=O)N1CCc2c(nc(-c3ccc(NC(=O)NC4CC4)cc3)nc2N2CCOC[C@@H]2C)C1 [Example 61, (S)-1-cyclopropyl-3-(4-(7-isobutyryl-4-(3-methylmorpholino)-5,6,7,8-tetrahydropyrido[3,4-d]pyrimidin-2-yl)phenyl)urea] | –
0.017 | C[C@H]1COCCN1c1nc(-c2ccc(NC(=O)NC3CC3)cc2)nc2c1CCN(C(=O)C(C)(C)C)C2 [Example 64, (S)-1-cyclopropyl-3-(4-(4-(3-methylmorpholino)-7-pivaloyl-5,6,7,8-tetrahydropyrido[3,4-d]pyrimidin-2-yl)phenyl)urea] | –
0.054 | CCNC(=O)Nc1ccc(-c2nc3c(c(N4CCOC[C@@H]4C)n2)CN(CC(C)C)C3)cc1 [Example 66, (S)-1-ethyl-3-(4-(6-isobutyl-4-(3-methylmorpholino)-6,7-dihydro-5H-pyrrolo[3,4-d]pyrimidin-2-yl)phenyl)urea] | –
0.028 | CCNC(=O)Nc1ccc(-c2nc3c(c(N4CCOC[C@@H]4C)n2)CCN(C(=O)OCC)C3)cc1 [Example 77, (S)-ethyl 2-(4-(3-ethylureido)phenyl)-4-(3-methylmorpholino)-5,6-dihydropyrido[3,4-d]pyrimidine-7(8H)-carboxylate] | –
0.021 | CCOC(=O)N1CCc2c(nc(-c3ccc(NC(=O)NC4CC4)cc3)nc2N2CCOC[C@@H]2C)C1 [Example 78, (S)-ethyl 2-(4-(3-cyclopropylureido)phenyl)-4-(3-methylmorpholino)-5,6-dihydropyrido[3,4-d]pyrimidine-7(8H)-carboxylate] | –
0.061 | C[C@H]1COCCN1c1nc(-c2ccc(NC(=O)Nc3cccc(O)n3)cc2)nc2c1CN(C)C2 [Example 80, (S)-1-(6-hydroxypyridin-2-yl)-3-(4-(6-methyl-4-(3-methylmorpholino)-6,7-dihydro-5H-pyrrolo[3,4-d]pyrimidin-2-yl)phenyl)urea] | –
0.022 | CCNC(=O)Nc1ccc(-c2nc3c(c(N4CCOC[C@@H]4C)n2)CCN(C(=O)OC)C3)cc1 [Example 81, (S)-methyl 2-(4-(3-ethylureido)phenyl)-4-(3-methylmorpholino)-5,6-dihydropyrido[3,4-d]pyrimidine-7(8H)-carboxylate] | –
0.07 | COC(=O)N1CCc2c(nc(-c3ccc(NC(=O)NC4CC4)cc3)nc2N2CCOC[C@@H]2C)C1 [Example 83, (S)-methyl 2-(4-(3-cyclopropylureido)phenyl)-4-(3-methylmorpholino)-5,6-dihydropyrido[3,4-d]pyrimidine-7(8H)-carboxylate] | –
0.531 | CCNC(=O)Nc1ccc(-c2nc3c(c(N4CCOC[C@@H]4C)n2)CN(C)C3)cc1F [Example 85, (S)-1-ethyl-3-(2-fluoro-4-(6-methyl-4-(3-methylmorpholino)-6,7-dihydro-5H-pyrrolo[3,4-d]pyrimidin-2-yl)phenyl)urea] | –
0.043 | COC(=O)N1Cc2nc(-c3ccc(NC(=O)NC4CC4)cc3)nc(N3CCOC[C@@H]3C)c2C1 [Example 86, (S)-methyl 2-(4-(3-cyclopropylureido)phenyl)-4-(3-methylmorpholino)-5H-pyrrolo[3,4-d]pyrimidine-6(7H)-carboxylate] | –
0.091 | CCNC(=O)Nc1ccc(-c2nc3c(c(N4CCOC[C@@H]4C)n2)CCN(C(=O)NCC)C3)cc1 [Example 87, (S)—N-ethyl-2-(4-(3-ethylureido)phenyl)-4-(3-methylmorpholino)-5,6-dihydropyrido[3,4-d]pyrimidine-7(8H)-carboxamide] | –
0.057 | CCNC(=O)N1CCc2c(nc(-c3ccc(NC(=O)NC4CC4)cc3)nc2N2CCOC[C@@H]2C)C1 [Example 88, (S)-2-(4-(3-cyclopropylureido)phenyl)-N-ethyl-4-(3-methylmorpholino)-5,6-dihydropyrido[3,4-d]pyrimidine-7(8H)-carboxamide] | –
0.042 | CCNC(=O)Nc1ccc(-c2nc3c(c(N4CCOC[C@@H]4C)n2)CN(C(=O)OC)C3)cc1 [Example 89, (S)-methyl 2-(4-(3-ethylureido)phenyl)-4-(3-methylmorpholino)-5H-pyrrolo[3,4-d]pyrimidine-6(7H)-carboxylate] | –
0.037 | CCNC(=O)Nc1ccc(-c2nc3c(c(N4CCOC[C@@H]4C)n2)CN(C(=O)OCC)C3)cc1 [Example 90, (S)-ethyl 2-(4-(3-ethylureido)phenyl)-4-(3-methylmorpholino)-5H-pyrrolo[3,4-d]pyrimidine-6(7H)-carboxylate] | –
0.087 | CCNC(=O)Nc1ccc(-c2nc3c(c(N4CCOC[C@@H]4C)n2)CCN(C(=O)Cc2cccnc2)C3)cc1 [Example 91, (S)-1-ethyl-3-(4-(4-(3-methylmorpholino)-7-(2-(pyridin-3-yl)acetyl)-5,6,7,8-tetrahydropyrido[3,4-d]pyrimidin-2-yl)phenyl)urea] | –
0.088 | CCNC(=O)Nc1ccc(-c2nc3c(c(N4CCOC[C@@H]4C)n2)CN(C(=O)OCC)C3)cc1F [Example 103, (S)-ethyl-2-(4-(3-ethylureido)-3-fluorophenyl)-4-(3-methylmorpholino)-5H-pyrrolo[3,4-d]pyrimidine-6(7H)-carboxylate] | –
0.118 | CCNC(=O)Nc1ccc(-c2nc3c(c(N4CCOC[C@@H]4C)n2)CCN(C)C3)c(F)c1 [Example 110, (S)-1-ethyl-3-(3-fluoro-4-(7-methyl-4-(3-methylmorpholino)-5,6,7,8-tetrahydropyrido[3,4-d]pyrimidin-2-yl)phenyl)urea] | –
0.053 | CCNC(=O)Nc1ccc(-c2nc3c(c(N4CCOC[C@@H]4C)n2)CN(C(=O)OCC)C3)c(F)c1 [Example 113, (S)-ethyl-2-(4-(3-ethylureido)-2-fluorophenyl)-4-(3-methylmorpholino)-5H-pyrrolo[3,4-d]pyrimidine-6(7H)-carboxylate] | –
0.049 | CCOC(=O)N1Cc2nc(-c3ccc(NC(=O)NC4CC4)cc3F)nc(N3CCOC[C@@H]3C)c2C1 [Example 131, (S)-ethyl 2-(4-(3-cyclopropylureido)-2-fluorophenyl)-4-(3-methylmorpholino)-5H-pyrrolo[3,4-d]pyrimidine-6(7H)-carboxylate] | IFNγ plasma levels [2]: reduction; IL-2 plasma levels [2]: reduction; IL-4 plasma levels [2]: reduction; TNFα plasma levels [2]: reduction
